ChEMBL document CHEMBL1201862, “PubChem BioAssay data set” (2004)
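In this assay, cells in 96-well plates receive the compound at five concentrations for 48 hours. Endpoints are linearly interpolated between the surrounding concentrations. GI50 is the concentration that inhibits growth by half.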 Active and inactive are the calls of the source. No stated cut-off is given here; in the data, active = GI50 up to about 1.1 µM and inactive = higher.

Experiments:
Test in all cases: NCI tumour cell line growth inhibition, 48 h
EKVX = tested on: EKVX
OVCAR-3 = tested on: OVCAR-3
SK-OV-3 = tested on: SK-OV-3
DU-145 = tested on: DU-145
CAKI-1 = tested on: CAKI-1
SR = tested on: SR
SF-295 = tested on: SF-295
K562 = tested on: K562
NCI-H23 = tested on: NCI-H23
SNB-19 = tested on: SNB-19
A549 = tested on: A549
HL-60 = tested on: HL-60
PC-3 = tested on: PC-3
786-0 = tested on: 786-0
HOP-62 = tested on: HOP-62
UO-31 = tested on: UO-31
Hs-578T = tested on: Hs-578T
OVCAR-8 = tested on: OVCAR-8
SF-268 = tested on: SF-268
OVCAR-4 = tested on: OVCAR-4

`Cc1ccc([N+](=O)[O-])cc1S(=O)(=O)Nc1ccc(C2=NN(C(=O)c3ccccc3)C(c3ccccc3O)C2)cc1` (stereo not given) was tested, and the GI50 (EKVX) was 12.6 µM (inactive), the GI50 (OVCAR-3) was 17 µM (inactive) and the GI50 (SK-OV-3) was 19.1 µM (inactive). For the same compound, the GI50 (DU-145) was 20.2 µM (inactive), the GI50 (CAKI-1) was 17.6 µM (inactive) and the GI50 (SR) was 21.2 µM (inactive). The GI50 (SF-295) was 23.4 µM (inactive), the GI50 (K562) was 15.3 µM (inactive) and the GI50 (NCI-H23) was 17.1 µM (inactive). For the same compound, the GI50 (SNB-19) was 28.2 µM (inactive), the GI50 (A549) was 19.1 µM (inactive) and the GI50 (HL-60) was 18.6 µM (inactive). The GI50 (PC-3) was 13.2 µM (inactive), the GI50 (786-0) was 14.4 µM (inactive) and the GI50 (HOP-62) was 25.3 µM (inactive). For the same compound, the GI50 (UO-31) was 16.6 µM (inactive), the GI50 (Hs-578T) was 22.8 µM (inactive) and the GI50 (OVCAR-8) was 13.9 µM (inactive). The GI50 (SF-268) was 12.8 µM (inactive) and the GI50 (OVCAR-4) was 15.4 µM (inactive).

With `C=C1CC(C)(COc2ccc3c(C)cc(=O)oc3c2)OC1=O` (stereo not given) the GI50 (EKVX) was 4.7 µM (inactive), the GI50 (OVCAR-3) was 2.31 µM (inactive) and the GI50 (SK-OV-3) was 3.73 µM (inactive). For the same compound, the GI50 (DU-145) was 2.36 µM (inactive), the GI50 (CAKI-1) was 1.3 µM (inactive) and the GI50 (SR) was 0.918 µM (active). For the same compound, the GI50 (SF-295) was 4.34 µM (inactive), the GI50 (K562) was 0.313 µM (active) and the GI50 (NCI-H23) was 1.57 µM (inactive). For the same compound, the GI50 (SNB-19) was 13.7 µM (inactive), the GI50 (A549) was 8.79 µM (inactive) and the GI50 (HL-60) was 0.232 µM (active). The GI50 (PC-3) was 2.39 µM (inactive), the GI50 (786-0) was 1.48 µM (inactive) and the GI50 (HOP-62) was 13.8 µM (inactive). For the same compound, the GI50 (UO-31) was 6.7 µM (inactive), the GI50 (Hs-578T) was 3.56 µM (inactive) and the GI50 (OVCAR-8) was 3.17 µM (inactive). For the same compound, the GI50 (SF-268) was 4.41 µM (inactive) and the GI50 (OVCAR-4) was 2.62 µM (inactive).

In the case of `O=c1[nH]nc(-c2ccccc2)n1/N=C/c1ccc([N+](=O)[O-])o1`, the GI50 (EKVX) is reported as 8.63 µM (inactive), the GI50 (OVCAR-3) is reported as 0.993 µM (active) and the GI50 (SK-OV-3) is reported as 9.29 µM (inactive). For the same compound, the GI50 (DU-145) was 3.45 µM (inactive), the GI50 (CAKI-1) was 7.13 µM (inactive) and the GI50 (SR) was 1.08 µM (active). The GI50 (SF-295) was 10.4 µM (inactive), the GI50 (K562) was 3.64 µM (inactive) and the GI50 (NCI-H23) was 5.9 µM (inactive). For the same compound, the GI50 (SNB-19) was 12.6 µM (inactive), the GI50 (A549) was 7.66 µM (inactive) and the GI50 (HL-60) was 8.89 µM (inactive). The GI50 (PC-3) was 6.35 µM (inactive), the GI50 (786-0) was 4.88 µM (inactive) and the GI50 (HOP-62) was 6.11 µM (inactive). For the same compound, the GI50 (UO-31) was 4.32 µM (inactive), the GI50 (Hs-578T) was 27.2 µM (inactive) and the GI50 (OVCAR-8) was 3.22 µM (inactive). The GI50 (SF-268) was 5.57 µM (inactive) and the GI50 (OVCAR-4) was 6.65 µM (inactive).

In the case of `O=C(c1cccs1)N(C(=S)OC12CC3CC(CC(C3)C1)C2)c1ccccc1`, the GI50 (EKVX) is reported as 17.8 µM (inactive), the GI50 (OVCAR-3) is reported as 34.6 µM (inactive) and the GI50 (SK-OV-3) is reported as 28.4 µM (inactive). The GI50 (DU-145) was 84.7 µM (inactive), the GI50 (CAKI-1) was 28.3 µM (inactive) and the GI50 (SR) was 25.2 µM (inactive). For the same compound, the GI50 (SF-295) was 27.9 µM (inactive), the GI50 (K562) was 26.8 µM (inactive) and the GI50 (NCI-H23) was 30.2 µM (inactive). The GI50 (SNB-19) was 33.7 µM (inactive), the GI50 (A549) was 32.8 µM (inactive) and the GI50 (HL-60) was 25 µM (inactive). The GI50 (PC-3) was 22.8 µM (inactive), the GI50 (786-0) was 35.4 µM (inactive) and the GI50 (HOP-62) was 47.6 µM (inactive). For the same compound, the GI50 (UO-31) was 18.7 µM (inactive), the GI50 (Hs-578T) was 32 µM (inactive) and the GI50 (OVCAR-8) was 31.8 µM (inactive). The GI50 (SF-268) was 37.6 µM (inactive) and the GI50 (OVCAR-4) was 35 µM (inactive).

For `CCc1oc2ccccc2c1C(=O)c1cc(Br)c(O)c(Br)c1` [BENZBROMARONE], the GI50 (EKVX) was 30.7 µM (inactive), the GI50 (OVCAR-3) was 18.2 µM (inactive) and the GI50 (SK-OV-3) was 37.8 µM (inactive). The GI50 (DU-145) was 43.3 µM (inactive), the GI50 (CAKI-1) was 36.1 µM (inactive) and the GI50 (SR) was 23.5 µM (inactive). For the same compound, the GI50 (SF-295) was 31.8 µM (inactive), the GI50 (K562) was 30.9 µM (inactive) and the GI50 (NCI-H23) was 24.5 µM (inactive). The GI50 (SNB-19) was 36.1 µM (inactive), the GI50 (A549) was 34.8 µM (inactive) and the GI50 (HL-60) was 13.6 µM (inactive). For the same compound, the GI50 (PC-3) was 20 µM (inactive), the GI50 (786-0) was 29.9 µM (inactive) and the GI50 (HOP-62) was 34.3 µM (inactive). The GI50 (UO-31) was 21.6 µM (inactive), the GI50 (Hs-578T) was 24.5 µM (inactive) and the GI50 (OVCAR-8) was 32.7 µM (inactive). The GI50 (SF-268) was 28.1 µM (inactive) and the GI50 (OVCAR-4) was 30 µM (inactive).

In the case of `COc1cc(CC(C)C(C)Cc2ccc(O)c(OC)c2)ccc1O` (stereo not given) [DIHYDROGUAIARETIC ACID], the GI50 (EKVX) is reported as 15.5 µM (inactive), the GI50 (OVCAR-3) is reported as 16 µM (inactive) and the GI50 (SK-OV-3) is reported as 20.9 µM (inactive). The GI50 (DU-145) was 22.3 µM (inactive), the GI50 (CAKI-1) was 16.9 µM (inactive) and the GI50 (SR) was 9.2 µM (inactive). For the same compound, the GI50 (SF-295) was 17.2 µM (inactive), the GI50 (K562) was 15 µM (inactive) and the GI50 (NCI-H23) was 16.9 µM (inactive). The GI50 (SNB-19) was 21.8 µM (inactive), the GI50 (A549) was 14.5 µM (inactive) and the GI50 (HL-60) was 9.4 µM (inactive). For the same compound, the GI50 (PC-3) was 10.8 µM (inactive), the GI50 (786-0) was 19.9 µM (inactive) and the GI50 (HOP-62) was 23.9 µM (inactive). The GI50 (UO-31) was 12.7 µM (inactive), the GI50 (Hs-578T) was 8.15 µM (inactive) and the GI50 (OVCAR-8) was 15.6 µM (inactive). For the same compound, the GI50 (SF-268) was 15.7 µM (inactive) and the GI50 (OVCAR-4) was 20.1 µM (inactive).
